{"source": "paper PMC4501720", "about": "(PLoS ONE, 2015)"}
{"system": "whole blood cells of group 3 pigs vaccinated with BCG-pAg85A", "format": "cell-based, pigs (Sus scrofa domestica)", "units": {"IFN-γ levels, BCG / pAg85A animal number 4": "pg/mL"}}
{"substance": "131–150: synthetic overlapping peptide of mature Ag85A, aa 131–150 (SALTLAIYHPQQFVYAGAMS; UniProt P9WQP3 174-193, looked up, fragment)", "IFN-γ levels, BCG / pAg85A animal number 1": "11,114 pg/mL", "IFN-γ levels, BCG / pAg85A animal number 2": "1,754 pg/mL", "IFN-γ levels, BCG / pAg85A animal number 3": "5,306 pg/mL", "IFN-γ levels, BCG / pAg85A animal number 4": 868, "IFN-γ levels, BCG / pAg85A animal number 5": "11,072 pg/mL", "IFN-γ levels, BCG / pAg85A animal number 6": "4,687 pg/mL", "group 3 animals recognizing the peptide (significant IFN-γ levels)": "6/6 and all six"}
{"substance": "221–240: synthetic overlapping peptide of mature Ag85A, aa 221–240 (GNNLPAKFLEGFVRTSNIKF; UniProt P9WQP3 264-283, looked up, fragment)", "IFN-γ levels, BCG / pAg85A animal number 1": "470 pg/mL", "IFN-γ levels, BCG / pAg85A animal number 2": "4,455 pg/mL", "IFN-γ levels, BCG / pAg85A animal number 3": "1,075 pg/mL", "IFN-γ levels, BCG / pAg85A animal number 4": "<5", "IFN-γ levels, BCG / pAg85A animal number 5": "303 pg/mL", "IFN-γ levels, BCG / pAg85A animal number 6": "2,980 pg/mL"}
{"substance": "211–230: synthetic overlapping peptide of mature Ag85A, aa 211–230 (CGNGKPSDLGGNNLPAKFLE; UniProt P9WQP3 254-273, looked up, fragment)", "IFN-γ levels, BCG / pAg85A animal number 1": "46 pg/mL", "IFN-γ levels, BCG / pAg85A animal number 2": "<5 pg/mL", "IFN-γ levels, BCG / pAg85A animal number 3": "13 pg/mL", "IFN-γ levels, BCG / pAg85A animal number 4": "<5", "IFN-γ levels, BCG / pAg85A animal number 5": "<5 pg/mL", "IFN-γ levels, BCG / pAg85A animal number 6": "218 pg/mL"}
{"substance": "51–70: synthetic overlapping peptide of mature Ag85A, aa 51–70 (WDINTPAFEWYDQSGLSVVM; UniProt P9WQP3 94-113, looked up, fragment)", "IFN-γ levels, BCG / pAg85A animal number 1": "5,083 pg/mL", "IFN-γ levels, BCG / pAg85A animal number 2": "<5 pg/mL", "IFN-γ levels, BCG / pAg85A animal number 3": "<5 pg/mL", "IFN-γ levels, BCG / pAg85A animal number 4": "<5", "IFN-γ levels, BCG / pAg85A animal number 5": "3,125 pg/mL", "IFN-γ levels, BCG / pAg85A animal number 6": "<5 pg/mL"}
{"substance": "151–170: synthetic overlapping peptide of mature Ag85A, aa 151–170 (GLLDPSQAMGPTLIGLAMGD; UniProt P9WQP3 194-213, looked up, fragment)", "IFN-γ levels, BCG / pAg85A animal number 1": "1,020 pg/mL", "IFN-γ levels, BCG / pAg85A animal number 2": "<5 pg/mL", "IFN-γ levels, BCG / pAg85A animal number 3": "257 pg/mL", "IFN-γ levels, BCG / pAg85A animal number 4": 71, "IFN-γ levels, BCG / pAg85A animal number 5": "349 pg/mL", "IFN-γ levels, BCG / pAg85A animal number 6": "<5 pg/mL"}
{"substance": "111–130: synthetic overlapping peptide of mature Ag85A, aa 111–130 (ANRHVKPTGSAVVGLSMAAS; UniProt P9WQP3 154-173, looked up, fragment)", "IFN-γ levels, BCG / pAg85A animal number 1": "15,124 pg/mL", "IFN-γ levels, BCG / pAg85A animal number 2": "2,879 pg/mL", "IFN-γ levels, BCG / pAg85A animal number 3": "1,415 pg/mL", "IFN-γ levels, BCG / pAg85A animal number 4": 33, "IFN-γ levels, BCG / pAg85A animal number 5": "961 pg/mL", "IFN-γ levels, BCG / pAg85A animal number 6": "<5 pg/mL"}
{"substance": "35–53: synthetic overlapping peptide of mature Ag85A, aa 35–53 (ALYLLDGLRAQDDFSGWDI; UniProt P9WQP3 78-96, looked up, fragment)", "IFN-γ levels, BCG / pAg85A animal number 1": "4,594 pg/mL", "IFN-γ levels, BCG / pAg85A animal number 2": "438 pg/mL", "IFN-γ levels, BCG / pAg85A animal number 3": "74 pg/mL", "IFN-γ levels, BCG / pAg85A animal number 4": "<5", "IFN-γ levels, BCG / pAg85A animal number 5": "2,105 pg/mL", "IFN-γ levels, BCG / pAg85A animal number 6": "<5 pg/mL"}
{"system": "whole blood cells of group 3 pigs vaccinated with BCG-pAg85A", "format": "cell-based, pigs (Sus scrofa domestica)", "remark": "another data set of the same source"}
{"substance": "131–150: synthetic overlapping peptide of mature Ag85A, aa 131–150 (SALTLAIYHPQQFVYAGAMS; UniProt P9WQP3 174-193, looked up, fragment)", "animals with positive proliferative response to peptide": "5/6"}
